Source: the NIST ThermoML archive (doi:10.1016/j.jct.2016.09.007)

Assay: xn = mol fraction of the nth substance listed
Settings: 93.2 kPa, Liquid; for speed of sound: Frequency=3 MHz, Sing-around technique in a fixed-path interferometer; for mass density: Vibrating tube method

CCCC(=O)[O-].CCCC[NH3+] [n-butylammonium butanoate] + CCCCO
Settings | mass density, 293.15 K [kg/m3] | mass density, 298.15 K [kg/m3] | mass density, 303.15 K [kg/m3] | mass density, 308.15 K [kg/m3] | mass density, 313.15 K [kg/m3] | speed of sound, 293.15 K [m/s] | speed of sound, 298.15 K [m/s] | speed of sound, 303.15 K [m/s] | speed of sound, 308.15 K [m/s] | speed of sound, 313.15 K [m/s]
x1 = 0.0305 | 817.522 | 813.696 | 809.839 | 805.95 | 802.02 | 1266.2 | 1249.1 | 1232 | 1215.2 | 1198.4
x1 = 0.053 | 822.696 | 818.886 | 815.044 | 811.168 | 807.257 | 1271.7 | 1254.5 | 1237.4 | 1220.5 | 1203.8
x1 = 0.101 | 833.099 | 829.318 | 825.508 | 821.665 | 817.785 | 1283.3 | 1266 | 1248.9 | 1231.9 | 1215
x1 = 0.1611 | 844.531 | 840.793 | 837.028 | 833.231 | 829.399 | 1296.3 | 1279 | 1261.8 | 1244.8 | 1227.9
x1 = 0.2022 | 851.656 | 847.949 | 844.213 | 840.451 | 836.653 | 1304.8 | 1287.5 | 1270.3 | 1253.2 | 1236.3
x1 = 0.2509 | 859.278 | 855.605 | 851.908 | 848.183 | 844.427 | 1314 | 1296.7 | 1279.5 | 1262.5 | 1245.6
x1 = 0.3027 | 866.842 | 863.204 | 859.543 | 855.853 | 852.119 | 1323.6 | 1306.3 | 1289.2 | 1272.1 | 1255.3
x1 = 0.3528 | 873.375 | 869.771 | 866.147 | 862.502 | 858.829 | 1332.3 | 1315 | 1297.9 | 1280.9 | 1264.1
x1 = 0.4053 | 879.699 | 876.13 | 872.54 | 868.931 | 865.297 | 1340.8 | 1323.5 | 1306.4 | 1289.5 | 1272.7
x1 = 0.449 | 884.611 | 881.064 | 877.503 | 873.925 | 870.321 | 1347.7 | 1330.5 | 1313.3 | 1296.4 | 1279.7
x1 = 0.4988 | 889.855 | 886.337 | 882.803 | 879.25 | 875.67 | 1355.4 | 1338.1 | 1321 | 1304.1 | 1287.4
x1 = 0.5505 | 894.968 | 891.475 | 887.969 | 884.447 | 880.9 | 1363.2 | 1345.9 | 1328.8 | 1311.9 | 1295.2
x1 = 0.6005 | 899.486 | 896.02 | 892.541 | 889.046 | 885.533 | 1370.4 | 1353 | 1335.9 | 1319 | 1302.3
x1 = 0.6491 | 903.634 | 900.198 | 896.744 | 893.273 | 889.785 | 1377.4 | 1359.9 | 1342.7 | 1325.8 | 1309.1
x1 = 0.6982 | 907.626 | 904.22 | 900.798 | 897.354 | 893.894 | 1384.5 | 1366.9 | 1349.6 | 1332.6 | 1316
x1 = 0.7456 | 911.277 | 907.896 | 904.501 | 901.087 | 897.65 | 1391.5 | 1373.7 | 1356.2 | 1339.1 | 1322.3
x1 = 0.7944 | 914.718 | 911.354 | 907.982 | 904.593 | 901.177 | 1398.7 | 1380.5 | 1362.8 | 1345.5 | 1328.7
x1 = 0.8462 | 918.325 | 914.961 | 911.608 | 908.243 | 904.86 | 1406.7 | 1388 | 1370 | 1352.5 | 1335.5
x1 = 0.8928 | 921.358 | 917.984 | 914.632 | 911.284 | 907.92 | 1414.2 | 1394.9 | 1376.5 | 1358.7 | 1341.5
x1 = 0.9463 | 924.512 | 921.173 | 917.809 | 914.461 | 911.112 | 1422.7 | 1402.7 | 1383.7 | 1365.5 | 1348
x1 = 1 | 928.794 | 925.509 | 922.217 | 918.88 | 915.567 | 1431.5 | 1410.3 | 1390.4 | 1371.5 | 1353.6

CCCC(=O)[O-].CCCC[NH3+] [n-butylammonium butanoate] + CCCO
Settings | mass density, 293.15 K [kg/m3] | mass density, 298.15 K [kg/m3] | mass density, 303.15 K [kg/m3] | mass density, 308.15 K [kg/m3] | mass density, 313.15 K [kg/m3] | speed of sound, 293.15 K [m/s] | speed of sound, 298.15 K [m/s] | speed of sound, 303.15 K [m/s] | speed of sound, 308.15 K [m/s] | speed of sound, 313.15 K [m/s]
x1 = 0.0507 | 820.248 | 816.288 | 812.295 | 808.263 | 804.187 | 1245.5 | 1228.1 | 1210.8 | 1193.6 | 1176.7
x1 = 0.1012 | 834.054 | 830.162 | 826.227 | 822.265 | 818.288 | 1264 | 1246.6 | 1229.4 | 1212.2 | 1195.2
x1 = 0.1518 | 845.668 | 841.844 | 837.991 | 834.106 | 830.181 | 1280 | 1262.6 | 1245.3 | 1228.2 | 1211.2
x1 = 0.202 | 855.786 | 852.003 | 848.218 | 844.396 | 840.532 | 1294.2 | 1276.9 | 1259.7 | 1242.6 | 1225.6
x1 = 0.2517 | 864.424 | 860.713 | 856.978 | 853.215 | 849.411 | 1306.7 | 1289.3 | 1272.1 | 1255 | 1238.2
x1 = 0.3003 | 871.964 | 868.301 | 864.616 | 860.902 | 857.161 | 1317.9 | 1300.6 | 1283.4 | 1266.4 | 1249.5
x1 = 0.3334 | 876.626 | 872.985 | 869.329 | 865.652 | 861.938 | 1325 | 1307.7 | 1290.6 | 1273.6 | 1256.7
x1 = 0.401 | 885.2 | 881.621 | 878.022 | 874.402 | 870.759 | 1338.2 | 1321 | 1303.9 | 1286.9 | 1270.2
x1 = 0.4478 | 890.446 | 886.895 | 883.335 | 879.756 | 876.162 | 1346.9 | 1329.7 | 1312.6 | 1295.7 | 1279
x1 = 0.5001 | 895.864 | 892.351 | 888.828 | 885.287 | 881.725 | 1355.5 | 1338.3 | 1321.2 | 1304.4 | 1287.8
x1 = 0.5465 | 900.176 | 896.692 | 893.2 | 889.694 | 886.168 | 1362.8 | 1345.6 | 1328.5 | 1311.7 | 1295.1
x1 = 0.5992 | 904.688 | 901.241 | 897.78 | 894.304 | 890.806 | 1370.7 | 1353.4 | 1336.4 | 1319.6 | 1303
x1 = 0.6495 | 908.619 | 905.208 | 901.781 | 898.337 | 894.874 | 1377.9 | 1360.5 | 1343.5 | 1326.6 | 1310.1
x1 = 0.6928 | 911.76 | 908.377 | 904.977 | 901.561 | 898.121 | 1384 | 1366.5 | 1349.4 | 1332.5 | 1316
x1 = 0.7484 | 915.581 | 912.23 | 908.868 | 905.487 | 902.083 | 1392 | 1374.2 | 1356.9 | 1340 | 1323.4
x1 = 0.7906 | 918.267 | 914.932 | 911.595 | 908.238 | 904.859 | 1398.1 | 1380.1 | 1362.6 | 1345.6 | 1328.9
x1 = 0.8695 | 922.883 | 919.552 | 916.236 | 912.916 | 909.578 | 1409.8 | 1391.2 | 1373.3 | 1355.9 | 1339
x1 = 0.9443 | 926.755 | 923.441 | 920.127 | 916.826 | 913.524 | 1420 | 1400.6 | 1382 | 1364.2 | 1347
x1 = 1 | 928.794 | 925.509 | 922.217 | 918.88 | 915.567 | 1431.5 | 1410.3 | 1390.4 | 1371.5 | 1353.6
